From patent US9944602B2, “Piperidinone herbicides” (E. I. DU PONT DE NEMOURS AND COMPANY, priority 2014, dated 2018)

Legend:
Type in all cases: in vivo
[1] = system: ryegrass, Italian (Italian ryegrass, Lolium multiflorum); assay: Test C postemergence ryegrass, Italian; conditions: Table C, scale 0 to 100
From the text: (§1) Seeds of plant species selected from blackgrass (Alopecurus myosuroides), ryegrass, Italian (Italian ryegrass, Lolium multiflorum), wheat (winter wheat, Triticum aestivum), galium (catchweed bedstraw, Galium aparine), corn (Zea mays), crabgrass, large (large crabgrass, Digitaria sanguinalis), foxtail, giant (giant foxtail, Setaria faberii), johnsongrass (Sorghum halepense), lambsquarters (Chenopodium album), morningglory (Ipomoea coccinea), yellow (yellow nutsedge, Cyperus esculentus), pigweed (Amaranthus retroflexus), ragweed (common ragweed, Ambrosia elatior), soybean (Glycine max), barnyardgrass (Echinochloa crus-galli), oilseed rape (Brassica napus), waterhemp (common waterhemp, Amaranthus rudis), and velvetleaf (Abutilon theophrasti) were planted into a blend of loam soil and sand and treated preemergence with test chemicals formulated in a non-phytotoxic solvent mixture which included a surfactant. At the same time, plants selected from these crop and weed species and also chickweed (common chickweed, Stellaria media), kochia (Kochia scoparia), and oat, wild (wild oat, Avena fatua) were planted in pots containing Sunshine Redi-Earth® planting medium comprising spaghnum peat moss, vermiculite, starter nutrients and dolomitic limestone and treated with postemergence applications of test chemicals formulated in the same manner. Plants ranged in height from 2 to 18 cm (1- to 4-leaf stage) for postemergence treatments. Treated plants and controls were maintained in a greenhouse for 13 to 15 days, after which time all species were compared to controls and visually evaluated. Plant response ratings, summarized in Table C, are based on a scale of 0 to 100 where 0 is no effect and 100 is complete control. A dash (-) response means no test result.

[2] = system: oat, wild (wild oat, Avena fatua); assay: Test C postemergence oat, wild; conditions: Table C, scale 0 to 100
From the text: as §1

[3] = system: johnsongrass (Sorghum halepense); assay: Test C postemergence johnsongrass; conditions: Table C, scale 0 to 100
From the text: as §1

[4] = system: chickweed (common chickweed, Stellaria media); assay: Test C postemergence chickweed; conditions: Table C, scale 0 to 100
From the text: as §1

[5] = system: ragweed (common ragweed, Ambrosia elatior); assay: Test C postemergence ragweed; conditions: Table C, scale 0 to 100
From the text: as §1

[6] = system: kochia (Kochia scoparia); assay: Test C postemergence kochia; conditions: Table C, scale 0 to 100
From the text: as §1

[7] = system: galium (catchweed bedstraw, Galium aparine); assay: Test C postemergence galium; conditions: Table C, scale 0 to 100
From the text: as §1

[8] = system: soybean (Glycine max); assay: Test C postemergence soybean; conditions: Table C, scale 0 to 100
From the text: as §1

[9] = system: blackgrass (Alopecurus myosuroides); assay: Test C postemergence blackgrass; conditions: Table C, scale 0 to 100
From the text: as §1

[10] = system: morningglory (Ipomoea coccinea); assay: Test C postemergence morningglory; conditions: Table C, scale 0 to 100
From the text: as §1

[11] = system: waterhemp (common waterhemp, Amaranthus rudis); assay: Test C preemergence waterhemp; conditions: Table C, scale 0 to 100
From the text: as §1

[12] = system: ryegrass, Italian (Italian ryegrass, Lolium multiflorum); assay: Test C preemergence ryegrass, Italian; conditions: Table C, scale 0 to 100
From the text: as §1

[13] = system: galium (catchweed bedstraw, Galium aparine); assay: Test C preemergence galium; conditions: Table C, scale 0 to 100
From the text: as §1

[14] = system: lambsquarters (Chenopodium album); assay: Test C preemergence lambsquarters; conditions: Table C, scale 0 to 100
From the text: as §1

[15] = system: oilseed rape (Brassica napus); assay: Test C preemergence oilseed rape; conditions: Table C, scale 0 to 100
From the text: as §1

[16] = system: blackgrass (Alopecurus myosuroides); assay: Test C preemergence blackgrass; conditions: Table C, scale 0 to 100
From the text: as §1

[17] = system: velvetleaf (Abutilon theophrasti); assay: Test A postemergence velvetleaf; conditions: 0 to 100 scale, 0 is no effect, 100 is complete control
From the text: (§2) Seeds of plant species selected from barnyardgrass (Echinochloa crus-galli), kochia (Kochia scoparia), ragweed (common ragweed, Ambrosia elatior), ryegrass, Italian (Italian ryegrass, Lolium multiflorum), crabgrass, large (large crabgrass, Digitaria sanguinalis), foxtail, giant (giant foxtail, Setaria faberii), morningglory (Ipomoea spp.), pigweed (Amaranthus retroflexus), velvetleaf (Abutilon theophrasti), wheat (Triticum aestivum), and corn (Zea mays) were planted into a blend of loam soil and sand and treated preemergence with a directed soil spray using test chemicals formulated in a non-phytotoxic solvent mixture which included a surfactant.
(§3) At the same time, plants selected from these crop and weed species and also blackgrass (Alopecurus myosuroides), and galium (catchweed bedstraw, Galium aparine) were planted in pots containing the same blend of loam soil and sand and treated with postemergence applications of test chemicals formulated in the same manner. Plants ranged in height from 2 to 10 cm and were in the one- to two-leaf stage for the postemergence treatment. Treated plants and untreated controls were maintained in a greenhouse for approximately 10 d, after which time all treated plants were compared to untreated controls and visually evaluated for injury. Plant response ratings, summarized in Table A, are based on a 0 to 100 scale where 0 is no effect and 100 is complete control. A dash (-) response means no test result.

[18] = system: crabgrass, large (large crabgrass, Digitaria sanguinalis); assay: Test A preemergence crabgrass, large; conditions: 0 to 100 scale; for Crabgrass, Large plant response rating: 125 g ai/ha, 0 no effect, 100 complete control; for Plant response rating, Crabgrass, Large: 500 g ai/ha, 0 is no effect, 100 is complete control
From the text: as §2, §3

[19] = system: morningglory (Ipomoea spp.); assay: Test A preemergence morningglory; conditions: 0 to 100 scale, 0 no effect, 100 complete control
From the text: as §2, §3

Structure (SMILES): O=C1NCCC(c2cccc(C(F)(F)F)c2)C1C(=O)Nc1ccccc1Cl (racemic) [Compound 17]
- Plant response rating ([1]; 31 g ai/ha): 0
- Plant response rating ([1]; 62 g ai/ha): 0
- Plant response rating ([1]; 125 g ai/ha): 0
- Plant response rating ([1]; 250 g ai/ha): 0
- Plant response rating ([2]; 31 g ai/ha): 0
- Plant response rating ([2]; 62 g ai/ha): 0
- Plant response rating ([2]; 125 g ai/ha): 0
- Plant response rating ([2]; 250 g ai/ha): 0
- Plant response rating ([3]; 31 g ai/ha): 0
- Plant response rating ([3]; 62 g ai/ha): 0
- Plant response rating ([3]; 125 g ai/ha): 0
- Plant response rating ([3]; 250 g ai/ha): 0
- Plant response rating ([4]; 31 g ai/ha): 0
- Plant response rating ([4]; 62 g ai/ha): 0
- Plant response rating ([4]; 125 g ai/ha): 0
- Plant response rating ([4]; 250 g ai/ha): 5
- Plant response rating ([5]; 31 g ai/ha): 0
- Plant response rating ([5]; 62 g ai/ha): 0
- Plant response rating ([5]; 125 g ai/ha): 0
- Plant response rating ([5]; 250 g ai/ha): 0
- Plant response rating ([6]; 31 g ai/ha): 0
- Plant response rating ([6]; 62 g ai/ha): 0
- Plant response rating ([6]; 125 g ai/ha): 0
- Plant response rating ([6]; 250 g ai/ha): 0
- Plant response rating ([7]; 31 g ai/ha): 0
- Plant response rating ([7]; 62 g ai/ha): 0
- Plant response rating ([7]; 125 g ai/ha): 0
- Plant response rating ([7]; 250 g ai/ha): 0
- Plant response rating ([8]; 31 g ai/ha): 0
- Plant response rating ([8]; 62 g ai/ha): 10
- Plant response rating ([8]; 125 g ai/ha): 0
- Plant response rating ([8]; 250 g ai/ha): 0
- Plant response rating ([9]; 31 g ai/ha): 0
- Plant response rating ([9]; 62 g ai/ha): 0
- Plant response rating ([9]; 125 g ai/ha): 0
- Plant response rating ([9]; 250 g ai/ha): 0
- Plant response rating ([10]; 31 g ai/ha): 0
- Plant response rating ([10]; 62 g ai/ha): 0
- Plant response rating ([10]; 125 g ai/ha): 0
- Plant response rating ([10]; 250 g ai/ha): 5

Structure (SMILES): O=C1NCCC(c2cccc(C(F)(F)F)c2)C1C(=O)Nc1ccc(F)c(F)c1F (racemic) [Compound 28]
- Plant response rating ([11]; 31 g ai/ha): 0
- Plant response rating ([11]; 125 g ai/ha): 0
- Plant response rating ([11]; 250 g ai/ha): 60
- Plant response rating ([12]; 31 g ai/ha): 0
- Plant response rating ([12]; 62 g ai/ha): 0
- Plant response rating ([12]; 125 g ai/ha): 0
- Plant response rating ([12]; 250 g ai/ha): 35
- Plant response rating ([13]; 31 g ai/ha): 0
- Plant response rating ([14]; 31 g ai/ha): 5
- Plant response rating ([14]; 62 g ai/ha): 5
- Plant response rating ([14]; 125 g ai/ha): 5
- Plant response rating ([14]; 250 g ai/ha): 15
- Plant response rating ([15]; 31 g ai/ha): 0
- Plant response rating ([15]; 62 g ai/ha): 0
- Plant response rating ([15]; 125 g ai/ha): 0
- Plant response rating ([15]; 250 g ai/ha): 0
- Plant response rating ([16]; 31 g ai/ha): 35
- Plant response rating ([16]; 62 g ai/ha): 40
- Plant response rating ([16]; 125 g ai/ha): 70
- Plant response rating ([16]; 250 g ai/ha): 90

Structure (SMILES): O=C1NCCC(c2cccc(C(F)(F)F)c2)C1C(=O)Nc1cccc(F)c1F (stereo not shown) [Compound 9, N-(2,3-difluorophenyl)-2-oxo-4-[3-(trifluoromethyl)phenyl]-3-piperidinecarboxamide]
- Plant response rating ([11]; 31 g ai/ha): 15
- Plant response rating ([11]; 62 g ai/ha): 0
- Plant response rating ([11]; 125 g ai/ha): 20
- Plant response rating ([11]; 250 g ai/ha): 0
- Plant response rating ([1]; 31 g ai/ha): 0
- Plant response rating ([1]; 62 g ai/ha): 0
- Plant response rating ([1]; 125 g ai/ha): 0
- Plant response rating ([1]; 250 g ai/ha): 0
- Plant response rating, Velvetleaf ([17]; 125 g ai/ha): 0
- Plant response rating, Velvetleaf ([17]; 500 g ai/ha): 0
- Crabgrass, Large plant response rating [18]: 90
- Plant response rating, Crabgrass, Large [18]: 100
- Plant response rating ([2]; 31 g ai/ha): 0
- Plant response rating ([2]; 62 g ai/ha): 0
- Plant response rating ([2]; 125 g ai/ha): 0
- Plant response rating ([2]; 250 g ai/ha): 0
- Plant response rating ([3]; 31 g ai/ha): 0
- Plant response rating ([3]; 62 g ai/ha): 0
- Plant response rating ([3]; 125 g ai/ha): 0
- Plant response rating ([3]; 250 g ai/ha): 5
- Plant response rating ([12]; 31 g ai/ha): 30
- Plant response rating ([12]; 62 g ai/ha): 50
- Plant response rating ([12]; 125 g ai/ha): 30
- Plant response rating ([12]; 250 g ai/ha): 80
- Morningglory plant response rating ([19]; 125 g ai/ha): 0
- Morningglory plant response rating ([19]; 500 g ai/ha): 0
- Plant response rating ([4]; 31 g ai/ha): 0
- Plant response rating ([4]; 62 g ai/ha): 0
- Plant response rating ([4]; 125 g ai/ha): 0
- Plant response rating ([4]; 250 g ai/ha): 5
- Plant response rating ([5]; 31 g ai/ha): 0
- Plant response rating ([5]; 62 g ai/ha): 0
- Plant response rating ([5]; 125 g ai/ha): 0
- Plant response rating ([5]; 250 g ai/ha): 5
- Plant response rating ([13]; 31 g ai/ha): 0
- Plant response rating ([13]; 62 g ai/ha): 0
- Plant response rating ([13]; 125 g ai/ha): 0
- Plant response rating ([13]; 250 g ai/ha): 75
- Plant response rating ([6]; 31 g ai/ha): 0
- Plant response rating ([6]; 62 g ai/ha): 0
- Plant response rating ([6]; 125 g ai/ha): 0
- Plant response rating ([6]; 250 g ai/ha): 0
- Plant response rating ([7]; 31 g ai/ha): 0
- Plant response rating ([7]; 62 g ai/ha): 0
- Plant response rating ([7]; 125 g ai/ha): 0
- Plant response rating ([7]; 250 g ai/ha): 40
- Plant response rating ([14]; 31 g ai/ha): 0
- Plant response rating ([14]; 62 g ai/ha): 0
- Plant response rating ([14]; 125 g ai/ha): 0
- Plant response rating ([14]; 250 g ai/ha): 0
- Plant response rating ([8]; 31 g ai/ha): 0
- Plant response rating ([8]; 62 g ai/ha): 0
- Plant response rating ([8]; 125 g ai/ha): 0
- Plant response rating ([8]; 250 g ai/ha): 10
- Plant response rating ([9]; 31 g ai/ha): 0
- Plant response rating ([9]; 62 g ai/ha): 0
- Plant response rating ([9]; 125 g ai/ha): 0
- Plant response rating ([9]; 250 g ai/ha): 0
- Plant response rating ([10]; 31 g ai/ha): 0
- Plant response rating ([10]; 62 g ai/ha): 0
- Plant response rating ([10]; 125 g ai/ha): 30
- Plant response rating ([10]; 250 g ai/ha): 40
- Plant response rating ([15]; 31 g ai/ha): 0
- Plant response rating ([15]; 62 g ai/ha): 0
- Plant response rating ([15]; 125 g ai/ha): 0
- Plant response rating ([15]; 250 g ai/ha): 40
- Plant response rating ([16]; 31 g ai/ha): 50
- Plant response rating ([16]; 62 g ai/ha): 40
- Plant response rating ([16]; 125 g ai/ha): 80
- Plant response rating ([16]; 250 g ai/ha): 90

Structure (SMILES): O=C1NCCC(c2cccc(C(F)(F)F)c2)C1C(=O)Nc1ccccc1C(F)(F)F (stereo not shown) [Compound 10, 2-oxo-N-[2-(trifluoromethyl)phenyl)-4-[3-(trifluoromethyl)phenyl]-3-piperidinecarboxamide]
- Plant response rating, Velvetleaf ([17]; 125 g ai/ha): 0
- Plant response rating, Velvetleaf ([17]; 500 g ai/ha): 0
- Crabgrass, Large plant response rating [18]: 90
- Plant response rating, Crabgrass, Large [18]: 100
- Morningglory plant response rating ([19]; 125 g ai/ha): 0
- Morningglory plant response rating ([19]; 500 g ai/ha): 0
